Measurements taken from ChEMBL document CHEMBL3826938, “Synthesis and biological evaluation of Oblongifolin C derivatives as c-Met inhibitors” (Bioorg Med Chem, 2016).
Activity calls are given as the source filed them. No cut-off for these calls is given here.

How the values were obtained:
HCC827 = test: Antimigratory activity against human HCC827 cells at 2.5 to 10 uM after 24 hrs by crystal violet staining based transwell chamber assay; format: functional, cell-based
AGS = test: Cytotoxicity against human AGS cells assessed as growth inhibition after 72 hrs by MTT assay
[1] = Cytotoxicity against human HCC827 cells assessed as growth inhibition after 72 hrs by MTT assay; conditions: HCC827, 72 h
[2] = Cytotoxicity against human MIAPaCa2 cells assessed as growth inhibition after 72 hrs by MTT assay; conditions: MIA PaCa-2, 72 h
HT-29 = test: Cytotoxicity against human HT-29 cells assessed as growth inhibition after 72 hrs by MTT assay; conditions: HT-29, 72 h
HeLa = test: Cytotoxicity against human HeLa cells assessed as growth inhibition after 72 hrs by MTT assay
A549 = test: Cytotoxicity against human A549 cells assessed as growth inhibition after 72 hrs by MTT assay; conditions: A549, 72 h
HepG2 = test: Cytotoxicity against human HepG2 cells assessed as growth inhibition after 72 hrs by MTT assay; conditions: HepG2, 72 h
[3] = target: Hepatocyte growth factor receptor (Homo sapiens, UniProt P08581); test: Inhibition of c-MET (unknown origin) by caliper mobility shift assay
Sequence of Hepatocyte growth factor receptor (P08581 whole entry): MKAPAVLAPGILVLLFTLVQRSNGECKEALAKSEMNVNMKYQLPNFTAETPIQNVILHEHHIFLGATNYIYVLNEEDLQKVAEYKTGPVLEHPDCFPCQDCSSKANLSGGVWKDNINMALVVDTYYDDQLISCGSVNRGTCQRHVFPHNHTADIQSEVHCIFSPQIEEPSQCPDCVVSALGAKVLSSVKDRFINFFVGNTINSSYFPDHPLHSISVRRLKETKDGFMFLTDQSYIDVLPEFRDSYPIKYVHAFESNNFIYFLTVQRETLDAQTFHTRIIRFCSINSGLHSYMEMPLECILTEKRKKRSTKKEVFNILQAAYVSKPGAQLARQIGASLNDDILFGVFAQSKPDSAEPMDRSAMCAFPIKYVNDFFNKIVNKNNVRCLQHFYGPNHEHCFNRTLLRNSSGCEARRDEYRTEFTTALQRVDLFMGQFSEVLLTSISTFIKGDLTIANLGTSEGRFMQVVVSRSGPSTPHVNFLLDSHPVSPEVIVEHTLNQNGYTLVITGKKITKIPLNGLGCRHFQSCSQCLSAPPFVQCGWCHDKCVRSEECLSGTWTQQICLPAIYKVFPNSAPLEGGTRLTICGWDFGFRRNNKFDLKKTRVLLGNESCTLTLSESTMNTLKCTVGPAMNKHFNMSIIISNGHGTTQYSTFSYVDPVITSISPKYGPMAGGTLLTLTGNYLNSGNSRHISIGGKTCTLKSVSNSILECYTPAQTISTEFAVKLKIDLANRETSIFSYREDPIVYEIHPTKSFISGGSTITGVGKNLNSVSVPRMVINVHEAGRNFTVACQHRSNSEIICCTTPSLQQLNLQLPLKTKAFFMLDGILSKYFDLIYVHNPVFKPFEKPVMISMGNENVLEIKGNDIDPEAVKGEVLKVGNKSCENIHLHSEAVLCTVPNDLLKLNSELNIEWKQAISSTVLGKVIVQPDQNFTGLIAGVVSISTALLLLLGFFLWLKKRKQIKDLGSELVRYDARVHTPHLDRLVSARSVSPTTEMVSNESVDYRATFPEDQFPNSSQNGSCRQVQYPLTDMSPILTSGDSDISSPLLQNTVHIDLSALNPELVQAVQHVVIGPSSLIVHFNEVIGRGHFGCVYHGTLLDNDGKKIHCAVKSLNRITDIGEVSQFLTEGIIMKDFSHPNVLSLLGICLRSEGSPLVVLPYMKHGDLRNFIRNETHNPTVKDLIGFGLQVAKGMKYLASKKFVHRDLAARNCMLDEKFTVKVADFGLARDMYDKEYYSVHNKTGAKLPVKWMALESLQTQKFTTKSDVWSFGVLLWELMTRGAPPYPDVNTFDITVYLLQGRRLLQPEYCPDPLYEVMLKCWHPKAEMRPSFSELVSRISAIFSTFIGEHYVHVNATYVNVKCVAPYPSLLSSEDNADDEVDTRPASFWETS

[4] = Solubility of compound in water; format: physicochemical; conditions: buffer

For `CC(C)=CCC/C(C)=C/C[C@@H]1C[C@]2(CC=C(C)C)C(=O)[C@@](CC=C(C)C)(C(=O)C3=C2OC2C=C(O)C(=O)C=C2C3=O)[C@@]1(C)CCC=C(C)C` (some centres not stated), which Activity (HCC827) is on record?
The Activity was “Active”.

And the IC50 (AGS)?
The IC50 was 7.84 µM.

And the IC50 [1]?
Its IC50 is greater than 20 µM.

What about the IC50 [2] of the same compound?
The IC50 was 9.88 µM.

And the IC50 (HT-29)?
The IC50 was 16.9 µM.

And the IC50 (HeLa)?
The IC50 was 10.3 µM.

And the IC50 (A549)?
The IC50 was 13.1 µM.

What about the IC50 (HepG2) of the same compound?
Its IC50 is 14.3 µM.

Which IC50 (AGS) does the source give for `CC(C)=CCC/C(C)=C/C[C@@H]1C[C@]2(CC=C(C)C)C(=O)[C@@](CC=C(C)C)(C(=O)C(Cc3ccc(O)c(O)c3)=C2O)[C@@]1(C)CCC=C(C)C` here?
The IC50 was greater than 20 µM.

And the IC50 [3]?
The IC50 was greater than 20 µM.

What about the IC50 [1] of the same compound?
The IC50 was greater than 20 µM.

What about the IC50 [2] of the same compound?
The IC50 was greater than 20 µM.

And the IC50 (HT-29)?
Its IC50 is greater than 20 µM.

What about the IC50 (HeLa) of the same compound?
The IC50 was greater than 20 µM.

What about the IC50 (A549) of the same compound?
The IC50 was greater than 20 µM.

And the IC50 (HepG2)?
Its IC50 is greater than 20 µM.

Which results are given for `COC(=O)COc1ccc(C(=O)C2=C(O)[C@]3(CC=C(C)C)C[C@@H](C/C=C(\C)CCC=C(C)C)[C@](C)(CCC=C(C)C)[C@](CC=C(C)C)(C2=O)C3=O)cc1OCC(=O)O`?
IC50 (AGS): > 20 µM; IC50 [1]: > 20 µM; IC50 [2]: > 20 µM; IC50 (HT-29): > 20 µM; solubility [4]: soluble; IC50 (HeLa): > 20 µM; IC50 (A549): > 20 µM; IC50 (HepG2): > 20 µM

For `CC(=O)Oc1ccc(C(=O)C2=C(O)[C@]3(CC=C(C)C)C[C@@H](C/C=C(\C)CCC=C(C)C)[C@](C)(CCC=C(C)C)[C@](CC=C(C)C)(C2=O)C3=O)cc1OC(C)=O`, which IC50 (AGS) is on record?
Its IC50 is 15.7 µM.

What about the IC50 [1] of the same compound?
The IC50 was greater than 20 µM.

And the IC50 [2]?
Its IC50 is greater than 20 µM.

What about the IC50 (HT-29) of the same compound?
Its IC50 is 12.2 µM.

What about the IC50 (HeLa) of the same compound?
The IC50 was 13.3 µM.

What about the IC50 (A549) of the same compound?
The IC50 was 16.6 µM.

And the IC50 (HepG2)?
The IC50 was greater than 20 µM.

With `CC(C)=CCC/C(C)=C/C[C@@H]1C[C@]2(CC=C(C)C)C(=O)[C@@](CC=C(C)C)(C(=O)C(C(=O)c3ccc(O)c(O)c3)=C2O)[C@@]1(C)CCC=C(C)C` [OBLONGIFOLIN C] as the compound, how does the IC50 (AGS) read?
Its IC50 is 4.58 µM.

What about the IC50 [3] of the same compound?
Its IC50 is 7.77 µM.

What about the IC50 [1] of the same compound?
The IC50 was 9.2 µM.

What about the IC50 [2] of the same compound?
Its IC50 is 4.46 µM.

What about the IC50 (HT-29) of the same compound?
The IC50 was 6.74 µM.

What about the IC50 (HeLa) of the same compound?
Its IC50 is 5.83 µM.

And the IC50 (A549)?
The IC50 was 4.29 µM.

And the IC50 (HepG2)?
The IC50 was 13 µM.

Which IC50 (AGS) does the source give for `CC(C)=CCC/C(C)=C/C[C@@H]1C[C@]2(CC=C(C)C)C(=O)[C@@](CC=C(C)C)(C(=O)C(C(=O)c3ccc(OCC(=O)O)c(OCC(=O)O)c3)=C2O)[C@@]1(C)CCC=C(C)C` here?
Its IC50 is greater than 20 µM.

What about the IC50 [1] of the same compound?
Its IC50 is greater than 20 µM.

And the IC50 [2]?
Its IC50 is greater than 20 µM.

And the IC50 (HT-29)?
Its IC50 is greater than 20 µM.

And the solubility [4]?
Its solubility is “soluble”.

And the IC50 (HeLa)?
The IC50 was greater than 20 µM.

And the IC50 (A549)?
Its IC50 is greater than 20 µM.

And the IC50 (HepG2)?
The IC50 was greater than 20 µM.

What does the source list for `CC(C)=CCC/C(C)=C/C[C@@H]1C[C@]2(CC=C(C)C)C(=O)[C@@](CC=C(C)C)(C(=O)C(OC(=O)c3ccc(O)c(O)c3)=C2O)[C@@]1(C)CCC=C(C)C`?
IC50 (AGS): 10.2 µM; IC50 [1]: > 20 µM; IC50 [2]: > 20 µM; IC50 (HT-29): 16.3 µM; IC50 (HeLa): 15.1 µM; IC50 (A549): 13.1 µM; IC50 (HepG2): > 20 µM

Which results are given for `CC(C)=CCC/C(C)=C/C[C@@H]1C[C@@]2(CC=C(C)C)C(=O)C3=C(OC4C=C(O)C(=O)C=C4C3=O)[C@](CC=C(C)C)(C2=O)[C@@]1(C)CCC=C(C)C` (some centres not stated)?
Activity (HCC827): Active; IC50 (AGS): 7.72 µM; IC50 [1]: 4.56 µM; IC50 [2]: 2.78 µM; IC50 (HT-29): 9.22 µM; IC50 (HeLa): 6.82 µM; IC50 (A549): 9.84 µM; IC50 (HepG2): 3.47 µM

Which results are given for `C[C@@H](Oc1cc(-c2cnn(C3CCNCC3)c2)cnc1N)c1c(Cl)ccc(F)c1Cl` [CRIZOTINIB]?
IC50 [1]: 7.25 µM; IC50 [2]: 7.16 µM; IC50 (HepG2): 3.7 µM

With `COC(=O)COc1cc(C(=O)C2=C(O)[C@]3(CC=C(C)C)C[C@@H](C/C=C(\C)CCC=C(C)C)[C@](C)(CCC=C(C)C)[C@](CC=C(C)C)(C2=O)C3=O)ccc1OCC(=O)O` as the compound, how does the IC50 (AGS) read?
The IC50 was greater than 20 µM.

And the IC50 [1]?
Its IC50 is greater than 20 µM.

What about the IC50 [2] of the same compound?
The IC50 was greater than 20 µM.

And the IC50 (HT-29)?
The IC50 was greater than 20 µM.

And the solubility [4]?
The solubility was “soluble”.

And the IC50 (HeLa)?
Its IC50 is greater than 20 µM.

What about the IC50 (A549) of the same compound?
Its IC50 is greater than 20 µM.

What about the IC50 (HepG2) of the same compound?
The IC50 was greater than 20 µM.

Which IC50 (AGS) does the source give for `CC(C)=CCC/C(C)=C/C[C@@H]1C[C@]2(CC=C(C)C)C(=O)[C@@](CC=C(C)C)(C(=O)C(C(=O)c3ccc(O)c(OC(=O)CCCC[C@@H]4SCC5NC(=O)NC54)c3)=C2O)[C@@]1(C)CCC=C(C)C` (some centres not stated) here?
The IC50 was 12.2 µM.

What about the IC50 [1] of the same compound?
The IC50 was 12.1 µM.

What about the IC50 [2] of the same compound?
Its IC50 is 11.7 µM.

What about the IC50 (HT-29) of the same compound?
Its IC50 is 18.2 µM.

And the IC50 (HeLa)?
The IC50 was 12.7 µM.

What about the IC50 (A549) of the same compound?
The IC50 was 11.3 µM.

What about the IC50 (HepG2) of the same compound?
Its IC50 is 14.6 µM.

For `CC(=O)Oc1cc(C(=O)C2=C(O)[C@]3(CC=C(C)C)C[C@@H](C/C=C(\C)CCC=C(C)C)[C@](C)(CCC=C(C)C)[C@](CC=C(C)C)(C2=O)C3=O)ccc1O`, which IC50 (AGS) is on record?
Its IC50 is 8.09 µM.

And the IC50 [1]?
The IC50 was greater than 20 µM.

And the IC50 [2]?
Its IC50 is 15.4 µM.

What about the IC50 (HT-29) of the same compound?
Its IC50 is 10.2 µM.

What about the IC50 (HeLa) of the same compound?
The IC50 was 8.97 µM.

And the IC50 (A549)?
The IC50 was 7.66 µM.

And the IC50 (HepG2)?
The IC50 was greater than 20 µM.
